Experimental data: patent US8658665B2, “3,6-disubstituted xanthylium salts and use thereof in treatment of tauopathies” (WisTa Laboratories Ltd., priority 2008, dated 2014)
Structures can show the parent of a compound that is named as a salt.

What was measured:
[1] = molecular target: T1, tau-tau binding: truncated tau (residues 297-390; dGA) on solid phase, full-length tau (T40) in aqueous phase (Homo sapiens, UniProt P10636); experiment: In vitro assay for establishing B50 (tau-tau binding); conditions: concentration required to inhibit tau-tau binding by 50%; mean ± SE, number of replications in parentheses; NE = no effect when tested to 500 μM
T1 construct: truncated tau (residues 297-390; dGA); full-length tau (T40) was added in the aqueous phase
T1 sequence (P10636 614-707): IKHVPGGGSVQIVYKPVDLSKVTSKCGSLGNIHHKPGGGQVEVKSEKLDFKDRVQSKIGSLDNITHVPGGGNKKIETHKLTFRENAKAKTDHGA
Description: Briefly, a fragment of tau corresponding to the core repeat domain, which has been adsorbed to a solid phase substrate, is able to capture soluble full-length tau and bind tau with high affinity. This association confers stability against proteolytic digestion of the aggregated tau molecules.
The aqueous phase binding buffer contained 0.05% Tween-20 and 1% gelatine in phosphate-buffered saline (pH7.4).
The concentration of compound required to inhibit the tau-tau binding by 50% is referred to as the B50 value.

[2] = tested on: fibroblast cells (3T6) expressing full-length tau (T40) and the 12 kD PHF-core tau fragment; experiment: Cell-based assay for establishing EC50 (inhibition of generation of the 12 kD tau fragment)
Description: In essence, fibroblast cells (3T6) express full-length tau (“T40”) under control of an inducible promotor, and low constitutive levels of the PHF-core tau fragment (12 kD fragment).
This is referred to as the EC50 value.

fibroblast cells (3T6) = conditions: for LD50: cell numbers after 24 hrs exposure, lactate dehydrogenase assay kit, mean ± SE, number of replications in parentheses; for RxI: therapeutic index, RxI=LD50/EC50
Description: Toxicity of the compounds described herein was assessed in the cell based assay used to assess EC50. Toxicity was measured by cell numbers after 24 hrs exposure to the compound using a lactate dehydrogenase assay kit TOX-7 (Sigma Biosciences) according to the manufacturer's instructions after lysis of remaining cells. Alternatively a kit from Promega UK (CytoTox 96) was used, again according to the manufacturer's instructions.
The therapeutic index (RxI) was calculated as follows: RxI=LD50/EC50.

SMILES | IC50 [1] [µM] | EC50 [2] [µM] | LD50 (fibroblast cells (3T6)) | RxI (fibroblast cells (3T6))
CCN(CC)c1cc2oc3cc(N(CC)CC)cc4oc5cc(=[N+](CC)CC)cc6oc(c1)c2c(c34)c65 [AL, 2,6,10-tris-diethylamino-4,8,12-trioxatrianguleum hexafluorophosphate] | 8.5 ± 0.9 | 0.13 ± 0.07 | 8 ± 4 (6) μM | 62
CCN(CC)c1ccc2nc3ccc(N(C)C)cc3nc2c1.Cl [AM, 3-Diethylamino-7-dimethylaminophenazinium chloride] | 634 | 1.1 ± 0.24 | 93 ± 19 (6) μM | 85
CC[N+](CC)=c1ccc2nc3ccc(N(C)C)cc3oc-2c1 [AN, 3-Diethylamino-7-dimethylaminooxazinium perchlorate] | > 500 | 0.54 ± 0.08 | 167 ± 29 (6) μM | 309
FC(F)(F)C1=c2cc3c4c(c2Oc2c1cc1c5c2CCCN5CCC1)CCC[N+]=4CCC3 [C, 8-(trifluoromethyl)-2,3,5,6,11,12,14,15-octahydro-1H,4H,10H,13H-diquinolizino[9,9a,1-bc;9′,9a′1′-hi]xanthylium perchlorate] | 461 ± 130 | 0.47 | 5.99 ± 2.6 (4) μM | 13
[Cl-].c1c2c3c(c4[o+]c5c6c7c(cc5cc14)CCCN7CCC6)CCCN3CCC2 [Compound A, 2,3,6,7,12,13,16,17-Octahydro-1H,5H,11H,15H-diquinolizino[1,9-bc:1′,9′-hi]xanthylium chloride] | 33.8 ± 5.2 | 0.0061 ± 0.0024 | 19 ± 2.7 (22) μM | 3115
CCN(CC)c1ccc(-c2c3ccc(=[N+](CC)CC)cc-3oc3cc(N(CC)CC)ccc23)cc1 [Compound AC] | 129 ± 11.9 | 1.43 ± 0.14 | 14.5 ± 8.4 (8) μM | 34
CCN(CC)c1ccc2c(-c3ccc([N+](=O)[O-])cc3)c3ccc(N(CC)CC)cc3[o+]c2c1.O=[N+]([O-])[O-] [Compound AD, 3,6-Bis-diethylamino-9-(4-nitrophenyl)xanthylium nitrate] |  | 0.35 ± 0.1 | 19 ± 9 (5) μM | 54
CC1(C)CCN2CCC(C)(C)c3c4c(cc1c32)C=c1cc2c3c(c1O4)C(C)(C)CC[N+]=3CCC2(C)C [Compound AE, 1,1,7,7,11,11,17,17-Octamethyl-2,3,6,7,12,13,16,17-octahydro-1H,5H,11H,15H-diquinolizino[1,9-bc;1′,9′-hi]xanthylium nitrate] | 324 ± 87.1 | 0.051 ± 0.012 | 21 ± 8 (7) μM | 412
O=[N+]([O-])[O-].c1cc2cc3ccc(N4CCOCC4)cc3[o+]c2cc1N1CCOCC1 [Compound AF, 3,6-Bis-morpholino-xanthylium nitrate] | 187 ± 28.3 | 22 ± 4.2 | 144 ± 67 (10) μM | 7
O=[N+]([O-])[O-].c1cc2cc3ccc(N4CCCCC4)cc3[o+]c2cc1N1CCCCC1 [Compound AG, 3,6-Bis-piperidino-xanthylium nitrate] | 257 ± 50.3 | 1.12 ± 0.75 | 13.8 ± 6.2 (8) μM | 12
O=[N+]([O-])[O-].c1cc2cc3ccc(N4CCCC4)cc3[o+]c2cc1N1CCCC1 [Compound AH, 3,6-Bis-pyrrolidino-xanthylium nitrate] | 129 ± 15.5 | 0.26 ± 0.073 | 121 ± 52 (12) μM | 465
Cl.Cl.c1cc2c(cc1N1CCOCC1)Oc1cc(N3CCOCC3)ccc1C2 [Compound AI, 3,6-Bis-morpholino xanthene dihydrochloride] | > 500 | 16 ± 11 | 280 ± 121 (10) μM | 17
Cl.Cl.c1cc2c(cc1N1CCCC1)Oc1cc(N3CCCC3)ccc1C2 [Compound AJ, 3,6-Bis-pyrrolidino xanthene dihydrochloride] | > 500 | 0.37 ± 0.1 | 125 ± 57 (10) μM | 334
Cl.Cl.c1cc2c(cc1N1CCCCC1)Oc1cc(N3CCCCC3)ccc1C2 [Compound AK, 3,6-Bis-piperidino xanthene dihydrochloride] | 284 ± 101 | 0.64 ± 0.27 | 44 ± 26 (8) μM | 69
O=[N+]([O-])[O-].c1c2c3c(c4[o+]c5c6c7c(cc5cc14)CCCN7CCC6)CCCN3CCC2 [Compound B, 2,3,6,7,12,13,16,17-Octahydro-1H,5H,11H,15H-diquinolizino[1,9-bc:1′,9′-hi]xanthylium nitrate] | 254 ± 26.4 |  | 30.8 ± 4.6 (4) μM | 3802
CCN(CC)c1ccc2c(c1)Oc1cc(N(CC)CC)ccc1C2 [Compound H, 3,6-bis-diethylamino xanthene dihydrochloride] | > 500 | 0.054 ± 0.01 | 113 ± 18 (11) μM | 2093
CCc1c2ccc(N(CC)CC)cc2[o+]c2cc(N(CC)CC)ccc12.[Cl-] [Compound J, 9-Ethyl-3,6-bis-diethylamino Xanthylium Chloride] | > 500 | 0.011 ± 0.006 | 17 ± 3 (10) μM | 1545
Cc1cc(N(C)C)cc2[s+]c3cc(N(C)C)cc(C)c3nc12 [DMMTC, reference compound] | 3.4 ± 0.2 | 0.04 ± 0.004 | 2.7 ± 1.2 (6) μM | 67
CCN(CC)c1ccc2cc3ccc(N(CC)CC)cc3[s+]c2c1.[I-] [K, 3,6-Bis(diethylamino)thioxanthylium Iodide] | > 500 | 0.23 ± 0.13 | 21.2 ± 12 (3) μM | 91
CN(C)c1ccc2cc3ccc(N(C)C)cc3[s+]c2c1.[Cl-].[Cl-].[Cl-].[Zn+2] [L, 3,6-bis(dimethylamino)thioxanthylium zinc trichloride] | 21.7 ± 2.7 | 0.3 | 22 ± 8.6 (3) μM | 73
CN(C)c1ccc2nc3ccc(N(C)C)cc3[s+]c2c1 [MTC, reference compound] |  | 0.59 ± 0.04 |  | 
CN(C)c1ccc2nc3ccc(=[N+](C)C)cc-3[nH]c2c1 [N, 3,7-Bis(dimethylamino)phenazinium chloride] | 93.1 ± 17 |  | 136 ± 19.3 (4) μM | 
CN(C)c1ccc2nc3ccc(=[N+](C)C)cc-3oc2c1 [O, 3,7-bis(dimethylamino)oxazinium chloride] | 190 ± 33.2 | 3.9 ± 3.5 | 115 ± 17 (9) μM | 29
